Experimental data reported in patent US20110318273A1, “FLUORESCENT CONTRAST AGENTS” (GE HEALTHCARE AS, priority 2004, published 2011).

Experiments:
[1] = Absorption spectrum of the reduced fluorochrome in phosphate-buffered saline (diode array spectrophotometer); type: physicochemical; conditions: for absorption in the visible region: reduced with sodium borohydride, diluted in phosphate-buffered saline, pH 7.4
Protocol: (§1) To 2 ml of a 1 mM solution of rhodamine 800 (Fluke, prod. No. 83701) in 0.1 M borate buffer, pH 8.5 was added approximately 5 mg of sodium borohydride. The mixture was shaken and left at room temperature for two hours. 40 microliters of the reduced solution was added to 960 μl of phosphate-buffered saline, pH 7.4. […] The spectrum of untreated rhodamine 800 (solid line) was recorded by exactly the same procedure. The sample of diluted, reduced fluorochrome was gently oxidized in air and its spectrum recorded (dashed line).
(§2) To 2 ml of a 1 mM solution of rhodamine 110 (Fluka, prod. No. 83695) in 0.1 M borate buffer, pH 8.5 was added approximately 5 mg of sodium borohydride. The mixture was shaken and left at room temperature for two hours. 40 microliters of the reduced solution was added to 960 μl of phosphate-buffered saline, pH 7.4. […] The spectrum of untreated rhodamine 110 (solid line) was recorded by exactly the same procedure. The sample of diluted, reduced fluorochrome was gently oxidized in air and its spectrum recorded (dashed line).
(§3) To 2 ml of a 1 mM solution of fluorescein (Sigma, prod. No. F-6377) in 0.1 M borate buffer, pH 8.5 was added approximately 5 mg of sodium borohydride. The mixture was shaken and left at room temperature for two hours. 40 microliters of the reduced solution was added to 960 μl of phosphate-buffered saline, pH 7.4. […] The spectrum of untreated fluorescein (solid line) was recorded by exactly the same procedure. The sample of diluted, reduced fluorochrome was gently oxidized in air and its spectrum recorded (dashed line).

[2] = Re-oxidation of the diluted, reduced fluorochrome in air, spectrum recorded; type: physicochemical; conditions: gently oxidized in air
Protocol: as §1, §2, §3

[3] = Oxidation of reduced rhodamine 110 by hydrogen peroxide, increase in fluorescence; conditions: hydrogen peroxide 10 μM final; emission 538 nm, excitation 485 nm
Protocol: Rhodamine 110 was reduced as in Example 2. Hydrogen peroxide to a final concentration of 10 μM was added to a portion of the solution of reduced rhodamin 110, i.e. to dihydrorhodamin 110, and the increase in fluorescence was recorded at 538 nm (excitation at 485 nm) on a Thermo Fluoroscan Ascent FL fluorimeter.

| SMILES | fluorescence following exposure to visible light [1] | absorption in the visible region [1] | optical properties after oxidation of the reduced fluorochrome [2] | oxidation by hydrogen peroxide (increase in fluorescence) [3] |
| --- | --- | --- | --- | --- |
| Nc1ccc2c(c1)Oc1cc(N)ccc1C2c1ccccc1C(=O)O [dihydro-rhodamine 110] | very little fluorescence | virtually no absorption in the visible region | regaining its optical properties | rapidly oxidised |
| N#CC1c2cc3c4c(c2Oc2c1cc1c5c2CCCN5CCC1)CCCN4CCC3 [dihydro-rhodamine 800] | no fluorescence | losing nearly all absorption in the visible region | regaining its optical properties | – |
| O=C(O)c1ccccc1C1c2ccc(O)cc2Oc2cc(O)ccc21 [dihydrofluorescein] | no fluorescence | losing nearly all absorption in the visible region | regaining its optical properties | – |
